Laboratory results published in ChEMBL document CHEMBL5579878, “Allosteric Activation of Protein Phosphatase 5 with Small Molecules” (J Med Chem, 2024).
Positions count from the first letter of the chain named. The source made the active and inactive calls. The rule behind the calls is not given here.

Experiments:
[1] = target: Serine/threonine-protein phosphatase PP1-alpha catalytic subunit (Homo sapiens) (UniProt P62136); test: Inhibition of PP1A (unknown origin) using DiFMUP as substrate at 0.01 to 1000 uM; conditions: dose 0.01-1000 µM
Sequence of Serine/threonine-protein phosphatase PP1-alpha catalytic subunit (Homo sapiens) (P62136 whole entry): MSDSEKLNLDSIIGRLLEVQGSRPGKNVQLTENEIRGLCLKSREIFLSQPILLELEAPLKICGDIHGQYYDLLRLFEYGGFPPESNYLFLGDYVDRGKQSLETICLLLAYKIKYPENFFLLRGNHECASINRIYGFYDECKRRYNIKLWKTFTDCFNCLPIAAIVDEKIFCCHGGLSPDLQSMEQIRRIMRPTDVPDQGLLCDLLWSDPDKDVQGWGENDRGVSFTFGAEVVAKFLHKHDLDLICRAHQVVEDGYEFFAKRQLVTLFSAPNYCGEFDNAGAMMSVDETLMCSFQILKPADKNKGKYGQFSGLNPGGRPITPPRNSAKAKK

[2] = target: T1, Serine/threonine-protein phosphatase 5 (Homo sapiens, UniProt P53041); test: Binding affinity to full length His-tagged human PP5 extracted from Escherichia coli BL21 assessed as dissociation constant by ITC analysis
T1 sequence (P53041 whole entry): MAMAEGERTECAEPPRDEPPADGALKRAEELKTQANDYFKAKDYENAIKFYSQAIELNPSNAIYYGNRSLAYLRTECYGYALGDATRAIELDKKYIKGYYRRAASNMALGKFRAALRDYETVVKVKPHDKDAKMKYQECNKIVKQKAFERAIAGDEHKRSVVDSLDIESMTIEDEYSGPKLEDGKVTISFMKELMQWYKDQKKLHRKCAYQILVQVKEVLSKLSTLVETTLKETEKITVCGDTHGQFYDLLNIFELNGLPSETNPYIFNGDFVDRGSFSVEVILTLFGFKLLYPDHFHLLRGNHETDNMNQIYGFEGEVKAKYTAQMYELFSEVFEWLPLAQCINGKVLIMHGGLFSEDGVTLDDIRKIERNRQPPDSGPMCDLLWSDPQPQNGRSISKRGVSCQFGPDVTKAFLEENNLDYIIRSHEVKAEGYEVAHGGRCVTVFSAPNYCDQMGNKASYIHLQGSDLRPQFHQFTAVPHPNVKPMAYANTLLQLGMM

SW-620 = test: Enhancement of HSP90 inhibitor AT13387-induced antiproliferative activity against human SW620 cells assessed as HSP90 inhibitor AT13387 IC50 at 50 uM incubated for 72 hrs by CCK8 assay (reference value: 122.3 nM); format: functional, cell-based; conditions: SW-620, 72 h
HCT-116 [3] = test: Downregulation of AT13387-induced HSP27 expression in PP5 Knockout human HCT-116 cells at 50 uM incubated for 24 hrs by Western blot analysis; format: functional, cell-based
[4] = system: T2, Serine/threonine-protein phosphatase 5 (Homo sapiens), P53041 [E428A]; test: Binding affinity to PP5 E428A mutant (unknown origin) by ITC analysis
T2 sequence (whole entry): T1 sequence (P53041 whole entry) with E428A

[5] = target: T3, Serine/threonine-protein phosphatase 5 (Homo sapiens) (UniProt P53041); test: Binding affinity to human PP5 extracted from Escherichia coli BL21 using CDC37 as substrate assessed as increase in dephosphorylation of p-CDC37 at S13 residue at 25 uM by Western blot analysis; conditions: filed as activator, time 0.5-2 hrs, TDE = time-dependent effect
T3 sequence (whole entry): T1 sequence (P53041 whole entry)

[6] = AUC (0 to t) in Sprague-Dawley rat at 10 mg/kg, ip measured after 8 hrs by LC-MS/MS analysis; format: ADME, organism-based; conditions: in vivo
HCT-116 [7] = test: Downregulation of AT13387-induced HSP40 mRNA expression in human HCT-116 cells at 50 uM incubated for 24 hrs by qRT-PCR analysis; format: functional, cell-based
[8] = target: T4, Low molecular weight phosphotyrosine protein phosphatase (Homo sapiens) (UniProt P24666); test: Inhibition of LMPTP-A (unknown origin) using DiFMUP as substrate at 0.01 to 1000 uM; conditions: dose 0.01-1000 µM
T4 sequence (whole entry): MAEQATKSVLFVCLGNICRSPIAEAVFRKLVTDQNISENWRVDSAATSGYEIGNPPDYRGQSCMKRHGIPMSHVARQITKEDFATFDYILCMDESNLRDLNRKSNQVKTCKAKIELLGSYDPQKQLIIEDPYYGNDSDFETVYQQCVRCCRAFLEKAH

[9] = target: T3, Serine/threonine-protein phosphatase 5 (Homo sapiens); test: Activation of PP5 in human HCT-116 cells assessed as decrease in intracellular S13 residue phosphorylated CDC37 level at 100 uM by Western blot analysis; format: cell-based; conditions: filed as activator, time <= 24.0 hrs, TDE = time-dependent effect
[10] = target: Dual specificity protein phosphatase 3 (Homo sapiens) (UniProt P51452); test: Inhibition of DUSP3 (unknown origin) using DiFMUP as substrate at 0.01 to 1000 uM; conditions: dose 0.01-1000 µM
Sequence of Dual specificity protein phosphatase 3 (Homo sapiens) (P51452 whole entry, looked up): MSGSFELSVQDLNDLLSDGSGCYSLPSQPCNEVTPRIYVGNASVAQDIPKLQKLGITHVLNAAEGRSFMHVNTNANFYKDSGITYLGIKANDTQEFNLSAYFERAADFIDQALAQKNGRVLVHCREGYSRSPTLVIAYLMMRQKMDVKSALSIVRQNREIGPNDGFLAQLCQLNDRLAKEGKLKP

HCT-116 [11] = test: Antitumor activity against human HCT-116 cells xenografted in BALB/c nude mouse assessed as decrease in AT13387-induced HSP27 protein expression in tumor at 30 to 60 mg/kg, ip administered every other day for 14 days by Western blot analysis; format: functional, organism-based; conditions: dose 30-60 mg/kg, time 14.0 day
HCT-116 [12] = test: Antitumor activity against human HCT-116 cells xenografted in BALB/c nude mouse assessed as decrease in AT13387-induced HSP40 protein expression in tumor at 30 to 60 mg/kg, ip administered every other day for 14 days by Western blot analysis; format: functional, organism-based; conditions: dose 30-60 mg/kg, time 14.0 day
HCT-116 [13] = test: Antiproliferative activity against human HCT-116 cells assessed as inhibition of cell proliferation at 1 to 100 uM incubated for 72 hrs by CCK8 assay; format: functional, cell-based; conditions: dose 1-100 µM
[14] = target: Serine/threonine-protein phosphatase PP1-beta catalytic subunit (Homo sapiens) (UniProt P62140); test: Inhibition of PP1B (unknown origin) using DiFMUP as substrate at 0.01 to 1000 uM; conditions: dose 0.01-1000 µM
Sequence of Serine/threonine-protein phosphatase PP1-beta catalytic subunit (Homo sapiens) (P62140 whole entry): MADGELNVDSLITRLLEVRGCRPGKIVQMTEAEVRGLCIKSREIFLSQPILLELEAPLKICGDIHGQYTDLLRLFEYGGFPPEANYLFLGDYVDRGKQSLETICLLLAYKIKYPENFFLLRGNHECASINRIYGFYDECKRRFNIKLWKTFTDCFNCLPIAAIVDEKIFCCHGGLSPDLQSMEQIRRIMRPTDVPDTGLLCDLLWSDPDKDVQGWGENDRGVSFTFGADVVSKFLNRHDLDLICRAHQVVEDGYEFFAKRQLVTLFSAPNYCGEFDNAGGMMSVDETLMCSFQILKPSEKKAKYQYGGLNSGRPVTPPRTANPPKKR

[15] = Toxicity in BALB/c nude mouse xenografted with human HCT-116 cells assessed as body weight loss at 60 mg/kg, ip administered every other day for 14 days; format: organism-based; conditions: in vivo, 336 h, time 14 day
HCT-116 [16] = test: Antitumor activity against human HCT-116 cells xenografted in BALB/c nude mouse at 30 to 60 mg/kg, ip administered every other day for 14 days in presence of AT13387; format: functional, organism-based; conditions: dose 30-60 mg/kg, time 14.0 day
[17] = system: T2, Serine/threonine-protein phosphatase 5 (Homo sapiens), P53041 [E428A]; test: Activation of PP5 E428A mutant (unknown origin) using pNPP as substrate assessed as increase in phosphatase activity at 10 to 200 uM incubated for 30 mins by spectrophotometric analysis; conditions: dose 10-200 µM
[18] = target: T3, Serine/threonine-protein phosphatase 5 (Homo sapiens); test: Binding affinity to His-tagged human PP5 extracted from Escherichia coli BL21 at 200 uM by STD-NMR analysis; conditions: filed as activator
[19] = target: Serine/threonine-protein phosphatase 5 (Homo sapiens, UniProt P53041, K430A); test: Binding affinity to PP5 K430A mutant (unknown origin) assessed as dissociation constant by ITC analysis
Sequence of Serine/threonine-protein phosphatase 5 (Homo sapiens, UniProt P53041, K430A) (P53041 2-499 K430A limits assumed): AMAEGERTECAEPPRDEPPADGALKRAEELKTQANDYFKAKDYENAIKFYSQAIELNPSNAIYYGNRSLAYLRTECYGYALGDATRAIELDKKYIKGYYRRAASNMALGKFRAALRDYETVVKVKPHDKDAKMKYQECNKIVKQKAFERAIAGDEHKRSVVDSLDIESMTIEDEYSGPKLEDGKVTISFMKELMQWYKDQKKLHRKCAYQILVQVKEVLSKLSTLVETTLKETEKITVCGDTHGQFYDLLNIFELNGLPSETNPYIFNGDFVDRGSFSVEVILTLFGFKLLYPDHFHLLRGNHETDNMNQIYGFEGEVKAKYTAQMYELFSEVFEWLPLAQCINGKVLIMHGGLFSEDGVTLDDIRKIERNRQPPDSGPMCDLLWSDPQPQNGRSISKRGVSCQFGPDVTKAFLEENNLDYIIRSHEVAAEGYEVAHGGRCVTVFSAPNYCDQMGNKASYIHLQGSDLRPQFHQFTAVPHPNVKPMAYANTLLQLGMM

For `N=c1oc2cc(F)cc(F)c2cc1C(N)=S`, the inhibition [1] was “inactive”, the Kd [2] was 1140 nM and the IC50 (SW-620) was 54.4 nM. The Activity (HCT-116 [3]) was “inactive”, the Activity [4] was “inactive” and the Activity [5] was “Tde”. The AUC(0-t) at 8 h [6] was 111 ng·h/mL, the Activity (HCT-116 [7]) was “Active” and the inhibition [8] was “inactive”. For the same compound, the Activity [9] was “Tde”, the inhibition [10] was “inactive” and the Activity (HCT-116 [11]) was “Active”. For the same compound, the Activity (HCT-116 [12]) was “Active”, the Activity (HCT-116 [13]) was “inactive” and the inhibition [14] was “inactive”. For the same compound, the Activity [15] was “Non-Toxic”, the Activity (HCT-116 [16]) was “Active” and the Activity [17] was “inactive”. The Activity [18] was “Active” and the Kd [19] was 37200 nM.
